{"source": "patent US20130344501A1", "about": "“METHODS FOR PRODUCING THREE-DIMENSIONAL PHYSIOLOGICALLY RELEVANT IMMUNE TISSUE SYSTEMS UNDER LOW FLUID SHEAR CONDITIONS” (priority 2010, published 2013)", "key": {"A549 3-D": {"tested_on": "A549 3-D", "experiment": "Cell viability of three-dimensional A549 monotypic cultures after exposure to 3-oxo-C12 HSL, flow cytometry", "assay_type": "cell-based, human", "conditions": "for Percentage viability, A549 3-D: A549 exposed alone, 20 hour exposure", "procedure": "The three-dimensional A549 monotypic cultures were made as previously described (Carterson et al., 2005).\n(§1) Assessment of live-, apoptotic-, and necrotic cell populations was performed with the annexin V-propidium iodide (PI) kit for flow cytometry analysis (ImmunoSource) according to the manufacturer's instructions.\n(§2) Stained cell suspensions were analyzed with an EPICS XL flow cytometer (Beckman-Coulter) or a Cytomics FC 500 system (Beckman-Coulter), equipped with an argon laser and filters for adequate excitation of the chosen fluorophores. Forward scatter, side scatter, FITC-, PI and PE-Cy5 emissions were measured and a total of 10,000 cells were recorded for each sample. The respective cell populations were delimited to eliminate background signals originating from cell debris. To assess background fluorescent signals from the tested cell populations, non-stained samples were included.\nAfter 72 hours of co-cultivation, aggregates containing 2×10^6 cells were seeded into 6-well plates containing fresh medium (5 ml total volume). Subsequently, aggregates were spiked with 5, 10 or 100 μM 3-oxo-C12 HSL (Sigma-Aldrich) (starting from a 20 mM stock solution in DMSO, stored at −20° C.). Equal volumes of DMSO, containing the respective amounts of 3-oxo-C12 HSL, were added to each well (25 μl) and a solvent control (25 μl DMSO) was included in each experiment. Six-well plates were placed at 37° C. in a 5% CO2 environment and incubated for 20 hours. For exposure assays of monocytes to 3-oxo-C12 HSL, 2×10^6 U937 cells/well were transferred in 6-well plates. To assess the influence of 3-oxo-C12 HSL on monocytes cultured on microcarrier beads, collagen I-coated beads were added to the cells at the same concentration as for seeding three-dimensional cultures (1 bead per 2500 cells). Subsequently, monocyte cultures (with or without microcarrier beads) were spiked with 3-oxo-C12 HSL (see above). A solvent control was included. After 20 hours incubation, cells were processed for flow cytometry analysis. Cell viability was assayed with trypan blue (0.4%) (Sigma) and/or with the annexin V-PI kit (ImmunoSource) (see above). […] FIG. 9B are examples of the three-dimensional A549-U937 co-culture model exposed to 100 μM 3-oxo-C12 HSL and to the solvent control DMSO. The presented cell population is gated for CD45 positive cells and thus only includes monocytes/macrophages. For FIGS. 9A-B, “I” represents the percentage of dead cells, while “H” is the viable cell population. Consequently, cell viability was further assessed based on the shift in forward scatter signal (see Table 1)."}, "[1]": {"tested_on": "ICAM-1 signal of the macrophage-like cells (U937, CD45 positive)", "experiment": "ICAM-1 signal of macrophage-like cells in the three-dimensional A549-U937 co-culture exposed to 3-oxo-C12 HSL, flow cytometry", "assay_type": "cell-based, human", "conditions": "100 μM; 20 hours; p<0.01; mean ± SD, N=3", "description": "Mouse anti-human CD45 (Invitrogen) and ICAM-1 (Invitrogen) conjugated with phycoerythrin (PE)-Cy5 and FITC respectively were used for flow cytometry staining. Sample preparation and fluorescent staining of cells. Cells were rinsed 2 times with pre-warmed HBSS (Invitrogen), detached from microcarrier beads/culture flasks with 0.25% trypsin-EDTA (Invitrogen) and counted using a hemocytometer. For inclusion of cells detached from the microcarrier beads (three-dimensional A549 and three-dimensional A549-U937 co-cultures) in the frame of QS exposure studies (see below), whole cultures (both aggregates and bulk liquid) were centrifuged at 1200 rpm for 6 min for each washing step. […]\nStained cell suspensions were analyzed with an EPICS XL flow cytometer (Beckman-Coulter) or a Cytomics FC 500 system (Beckman-Coulter), equipped with an argon laser and filters for adequate excitation of the chosen fluorophores. Forward scatter, side scatter, FITC-, PI and PE-Cy5 emissions were measured and a total of 10,000 cells were recorded for each sample. […]\nAfter 72 hours of co-cultivation, aggregates containing 2×10^6 cells were seeded into 6-well plates containing fresh medium (5 ml total volume). […] Consequently, cell viability was further assessed based on the shift in forward scatter signal (see Table 1)."}, "[2]": {"tested_on": "A549 cells in A549-U937 3-D co-culture", "experiment": "Viability of A549 epithelial cells in the three-dimensional A549-U937 co-culture after exposure to 3-oxo-C12 HSL", "assay_type": "cell-based, human", "conditions": "A549 co-cultured three-dimensionally with U937, 20 hour exposure", "procedure": "A549 three-dimensional aggregates were grown as described above and after 9 days of three-dimensional A549 cultivation, undifferentiated U937 monocytes were added to the HARV as follows. three-dimensional A549 cells were counted by trypsinization of an aggregate sample and U937 cells (grown in T75 flasks) were added in a 1:1 ratio to the three-dimensional A549 culture. A549 and U937 cells were co-cultured in the HARV at 20 rpm for 72 h. After addition of the monocytes, culture medium was changed after 48 hours of co-cultivation where after medium was replenished every 24 hours.\nas §1, §2\nAfter 72 hours of co-cultivation, aggregates containing 2×10^6 cells were seeded into 6-well plates containing fresh medium (5 ml total volume). Subsequently, aggregates were spiked with 5, 10 or 100 μM 3-oxo-C12 HSL (Sigma-Aldrich) (starting from a 20 mM stock solution in DMSO, stored at −20° C.). Equal volumes of DMSO, containing the respective amounts of 3-oxo-C12 HSL, were added to each well (25 μl) and a solvent control (25 μl DMSO) was included in each experiment. Six-well plates were placed at 37° C. in a 5% CO2 environment and incubated for 20 hours. […] Consequently, cell viability was further assessed based on the shift in forward scatter signal (see Table 1)."}, "[3]": {"tested_on": "three-dimensional A549 and three-dimensional A549-U937 cultures", "assay_type": "in vitro ADME, human", "conditions": "original concentration 100 μM", "procedure": "(§3) Following exposure of three-dimensional cultures and monocytes to 3-oxo-C12 HSL, cell-free samples were taken and stored at −20° C. at indicated time points. The remaining 3-oxo-C12 HSL concentration was assessed as previously described (Crabbé et al., 2008) using the indicator strain E. coli harboring the reporter plasmid pUCP22NotI-PlasB::gfp(ASV)Plac::lasR (Hentzer et al., 2002). A 3-oxo-C12 HSL standard series was included ranging from 1.63 to 100 μM. Culture medium containing microcarrier beads was used as a control to normalize for bioadsorption."}, "U937 cultures": {"tested_on": "U937 cultures", "assay_type": "in vitro ADME, human", "conditions": "compared to three-dimensional A549 and A549-U937 cultures", "procedure": "as §3"}}}
{"compound": "CCCCCCCCCC(=O)CC(=O)N[C@H]1CCOC1=O", "note": "[3-oxo-C12 HSL, N-(3-oxododecanoyl)-Lhomoserine lactone]", "values": [{"measurement": "cell death in A549 three-dimensional monotypic cultures", "setting": "A549 3-D; 5, 10 and 100 μM", "result": "did not induce cell death"}, {"measurement": "Percentage viability, A549 3-D", "setting": "A549 3-D; 5 μM", "result": "97.7 ± 0.00", "unit": "%"}, {"measurement": "Percentage viability, A549 3-D", "setting": "A549 3-D; 10 μM", "result": "97.8 ± 0.00", "unit": "%"}, {"measurement": "Percentage viability, A549 3-D", "setting": "A549 3-D; 100 μM", "result": "94.9 ± 0.02", "unit": "%"}, {"measurement": "increase in the ICAM-1 signal compared to the control samples", "setting": "[1]", "result": "2.93±0.79", "unit": "fold"}, {"measurement": "Percentage viability, A549-U937 3-D, A549", "setting": "[2]; 5 μM", "result": "90.3 ± 0.01", "unit": "%"}, {"measurement": "Percentage viability, A549-U937 3-D, A549", "setting": "[2]; 10 μM", "result": "92.6 ± 0.00", "unit": "%"}, {"measurement": "Percentage viability, A549-U937 3-D, A549", "setting": "[2]; 100 μM", "result": "84.3 ± 0.00", "unit": "%"}, {"measurement": "remaining fraction of the original 3-oxo-C12 HSL concentration", "setting": "[3]; after 2 hours of exposure", "result": 30, "unit": "%"}, {"measurement": "residual 3-oxo-C12 HSL", "setting": "[3]; after 20 hours of exposure", "result": "no residual 3-oxo-C12 HSL could be detected"}, {"measurement": "change of 3-oxo-C12 HSL concentration over time", "setting": "U937 cultures", "result": "minimal differences in 3-oxo-C12 HSL concentration over time"}]}
